Data reported in ChEMBL document CHEMBL1201862, “PubChem BioAssay data set” (2004).
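96-well plates; 48 h exposure; 5 concentrations. Endpoints by linear interpolation between flanking doses. Not reached: highest tested concentration assigned. Here, GI50 denotes the concentration required for 50% inhibition of growth.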 Active and inactive are the calls of the source. Rule as the data show it: active = GI50 up to about 1.1 µM and inactive = higher.

Tests used:
Experiment in all cases: NCI anticancer screen, dose series, 48 h
[1] = system: 786-0
[2] = system: SNB-19
[3] = system: SF-295
[4] = system: SF-268
[5] = system: U-251
[6] = system: HOP-92
[7] = system: BT-549
[8] = system: TK-10
[9] = system: ACHN
[10] = system: HCT-116
[11] = system: COLO 205
[12] = system: HT-29
[13] = system: RPMI-8226
[14] = system: OVCAR-5
[15] = system: DU-145
[16] = system: CCRF-CEM
[17] = system: A498
[18] = system: MCF7
[19] = system: Hs-578T

Measured: GI50

CC(C)[Si]1(C(C)C)OCC2OC(n3cnc4c(N)ncnc43)C(N)C2O[Si](C(C)C)(C(C)C)O1 (centres undefined)
inactive: [1] 5.11 µM | [2] 4.88 µM | [3] 3.65 µM | [4] 12 µM | [5] 8.32 µM | [6] 11.8 µM | [7] 6.41 µM | [8] 10.1 µM | [9] 3.44 µM | [10] 4.14 µM | [11] 5.68 µM | [12] 4.6 µM | [13] 2.22 µM | [14] 16.8 µM | [15] 11.9 µM | [16] 9.29 µM | [17] 13.9 µM | [18] 2.55 µM | [19] 11.8 µM

CCOC(=O)c1sc2nc(SC)nc3c2c1N=CN3c1ccc(Br)cc1
inactive: [1] 40.1 µM | [2] > 100 µM | [3] > 100 µM | [5] 76.2 µM | [6] > 100 µM | [7] > 100 µM | [8] > 100 µM | [9] > 100 µM | [10] > 100 µM | [11] > 100 µM | [12] > 100 µM | [13] > 100 µM | [14] > 100 µM | [15] > 100 µM | [16] > 100 µM | [17] 25.2 µM | [18] > 100 µM | [19] 23.1 µM

O=C1N2CCC[C@H]2CS1(=O)=O
inactive: [1] 11.1 µM | [2] 35.9 µM | [3] 40.2 µM | [4] 20.7 µM | [5] 16.5 µM | [6] 10.9 µM | [7] 14.8 µM | [8] 18.2 µM | [9] 15.2 µM | [10] 12.7 µM | [11] 12.2 µM | [12] 28.5 µM | [13] 2.77 µM | [14] 36.9 µM | [15] 17.9 µM | [16] 2.3 µM | [17] 20.4 µM | [18] 6.73 µM | [19] 55.1 µM

O=[N+]([O-])c1cccc(/N=C2\c3ccccc3CN2c2cccc([N+](=O)[O-])c2)c1
inactive: [1] 50.7 µM | [2] > 100 µM | [3] > 100 µM | [4] 81.5 µM | [5] > 100 µM | [6] 19.4 µM | [7] > 100 µM | [8] > 100 µM | [9] 74.5 µM | [10] > 100 µM | [11] > 100 µM | [12] > 100 µM | [13] > 100 µM | [14] > 100 µM | [15] > 100 µM | [17] > 100 µM | [18] 33.7 µM | [19] 37.8 µM

O=S(=O)(c1ccccc1)c1cccc2c1NCCC2
inactive: [1] 78.7 µM | [2] 39.2 µM | [3] 31 µM | [4] 72.1 µM | [6] 28.8 µM | [7] 20.8 µM | [8] 64.9 µM | [9] 58.9 µM | [10] 42.5 µM | [11] > 10 µM | [12] 37.8 µM | [13] 56.1 µM | [14] > 100 µM | [15] 59.4 µM | [16] 46.8 µM | [17] > 100 µM | [18] 40.8 µM | [19] 52.1 µM

CS(=O)(=O)NC12CCC(c3ccccc31)c1ccccc12
inactive: [1] > 100 µM | [2] > 100 µM | [4] > 100 µM | [5] > 100 µM | [6] > 100 µM | [7] > 100 µM | [8] > 100 µM | [9] > 100 µM | [10] > 100 µM | [11] > 100 µM | [12] > 100 µM | [13] > 100 µM | [14] > 100 µM | [15] > 100 µM | [16] > 100 µM | [17] > 100 µM | [18] > 100 µM | [19] > 100 µM

CC1(C)CC(=O)c2c(-c3ccc(Cl)cc3)c(C#N)c(=S)n(C3OC(CO)C(O)C(O)C3O)c2C1 (centres undefined)
inactive: [1] 27.5 µM | [2] 40.3 µM | [3] 38 µM | [4] 48.3 µM | [5] 21.7 µM | [6] 21.2 µM | [7] 45.9 µM | [8] 53.3 µM | [9] 39 µM | [10] 16 µM | [11] 34 µM | [12] 26.7 µM | [13] 22.5 µM | [14] > 100 µM | [15] 49.8 µM | [16] 26.2 µM | [17] 34 µM | [18] 33.7 µM | [19] 25.4 µM

Cc1ccc(S(=O)(=O)OC2C3OC(C)(C)OC3OC2C(c2cc(O)c3c(c2O)C(=O)c2ccccc2C3=O)c2cc(O)c3c(c2O)C(=O)c2ccccc2C3=O)cc1 (centres undefined)
inactive: [1] > 10 µM | [2] > 10 µM | [3] > 10 µM | [4] > 10 µM | [5] > 10 µM | [6] > 10 µM | [7] > 10 µM | [8] > 10 µM | [9] > 10 µM | [10] > 10 µM | [11] > 10 µM | [12] > 10 µM | [13] > 10 µM | [14] > 10 µM | [15] > 10 µM | [16] > 10 µM | [17] > 10 µM | [18] > 10 µM | [19] > 10 µM

N=C(N)N/N=C/c1cnn(C(=N)N)c1
inactive: [1] > 100 µM | [2] > 100 µM | [3] > 100 µM | [4] > 100 µM | [5] 91 µM | [6] > 100 µM | [7] > 100 µM | [8] > 100 µM | [9] > 100 µM | [10] > 100 µM | [11] > 100 µM | [12] > 100 µM | [13] > 100 µM | [14] > 100 µM | [15] > 100 µM | [16] > 100 µM | [17] > 100 µM | [18] > 100 µM | [19] > 100 µM

CSc1ccsc1-c1sc(-c2cc(SC)c(-c3sc(-c4cc(SC)c(-c5sccc5SC)s4)cc3SC)s2)cc1SC
inactive: [1] 15.3 µM | [2] > 100 µM | [3] > 100 µM | [4] > 100 µM | [5] 67.3 µM | [6] 62.4 µM | [7] 64.3 µM | [8] > 100 µM | [9] 32.9 µM | [10] 75.9 µM | [11] 33.4 µM | [12] 93.5 µM | [13] 3.44 µM | [14] > 100 µM | [15] 96.8 µM | [16] 4.26 µM | [17] > 100 µM | [18] 57.1 µM | [19] > 100 µM

N=C(N)Nc1ccc(CC(N)C(=O)O)cc1 (centres undefined)
inactive: [1] > 12.5 µM | [3] > 12.5 µM | [4] > 12.5 µM | [5] > 12.5 µM | [6] > 12.5 µM | [7] > 12.5 µM | [8] > 12.5 µM | [9] > 12.5 µM | [10] > 12.5 µM | [11] > 12.5 µM | [12] > 12.5 µM | [13] > 12.5 µM | [14] > 12.5 µM | [15] > 12.5 µM | [16] > 12.5 µM | [17] > 12.5 µM | [18] > 12.5 µM | [19] > 12.5 µM
